Test results from publication PMC2213532 (The Journal of Experimental Medicine, 2000).
Residues, ends and D or L forms follow the SMILES beside them.

Tests used:
[1] = target: soluble H-2D^b (Mus musculus, UniProt P01899); test: biochemical; type: binding
[2] = target: soluble H-2D^b; test: radioligand binding

soluble H-2D^b (Mus musculus, UniProt P01899), sequence (P01899 25-362): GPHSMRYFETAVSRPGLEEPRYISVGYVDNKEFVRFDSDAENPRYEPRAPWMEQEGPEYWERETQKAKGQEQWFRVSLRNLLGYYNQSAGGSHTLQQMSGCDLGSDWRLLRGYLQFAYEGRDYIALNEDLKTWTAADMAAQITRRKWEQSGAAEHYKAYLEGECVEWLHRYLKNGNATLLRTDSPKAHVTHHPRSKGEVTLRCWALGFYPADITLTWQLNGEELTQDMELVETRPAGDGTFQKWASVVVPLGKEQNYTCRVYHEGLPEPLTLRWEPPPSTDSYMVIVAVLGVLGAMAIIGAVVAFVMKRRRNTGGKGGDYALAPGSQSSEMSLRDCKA
soluble H-2D^b (Mus musculus, UniProt P01899), sequence (P01887 21-119, further chain): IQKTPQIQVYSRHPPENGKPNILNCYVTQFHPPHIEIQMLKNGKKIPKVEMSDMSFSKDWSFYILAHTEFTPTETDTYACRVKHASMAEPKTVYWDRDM

Row | Compound | IC50 [1] [nM] | IC50 [2] [nM]
1 | CSCC[C@H](NC(=O)[C@@H](NC(=O)[C@H](CC(=O)O)NC(=O)[C@H](CCSC)NC(=O)[C@H](CC(N)=O)NC(=O)[C@H](CCC(=O)O)NC(=O)[C@H](CC(N)=O)NC(=O)[C@H](CO)NC(=O)[C@H](C)N)[C@@H](C)O)C(=O)O [NP366-374] (H-ASNENMDTM-OH) | 6 | 
2 | NP_(366-374) peptide of A/Memphis/102/72 |  | 6
